Experiment: CLA analysis immediately after the processing step (pelleting / extrusion)
Assay type: physicochemical
Protocol: Preparation of the meal: Corn and extracted soybean meal were weighed in together, ground and mixed in a horizontal mixer. Lutalin or Lutrell were added and mixed in. The mixing time amounted to 15 minutes. These two mixtures were divided in each case. 80 kg were pelleted and 30 kg were extruded.
Pelleting press: Manufacturer Simon Heesen, horizontal die, 3.3×35 mm, nominal capacity 300 kg/hr. Extruder: Werner & Pfleiderer 37, die 2×0 3.9 mm, nominal capacity up to 50 kg/hr. Pelleting: Pelleting temperatures of 67-68.5° C. were reached. Extrusion: An extrusion temperature of 85° C. was reached, approximately 14% of water having been added. A residual moisture of 10 to 12% has been found in the end product.

Substance: conjugated linoleic acid [CLA]
- activity loss on extrusion (extrusion temperature 85° C.): approx. 40%
- survival of the pelleting process (pelleting 67-68.5° C., in words): survived the pelleting process very well
